This assay has as its system MV-4-11 cells. Put plainly: Gene expression microarray analysis (Affymetrix PrimeView) and GSEA. In kind it is cell-based, human. The arrangement: RFU PODN (11730768_x_at) / Fold change /veh PODN (11730768_x_at) / RFU LINC00158 (11744669_a_at) / Fold change /veh LINC00158 (11744669_a_at) / RFU DUSP10 (11751237_a_at) / Fold change /veh DUSP10 (11751237_a_at) / RFU ID3 (11757404_x_at) / Fold change /veh ID3 (11757404_x_at) / RFU PLEKHG5 (11737974_s_at) / Fold change /veh PLEKHG5 (11737974_s_at) / RFU LRRC4B (11730491_at) / Fold change /veh LRRC4B (11730491_at) / RFU GIMAP4 (11747438_a_at) / Fold change /veh GIMAP4 (11747438_a_at) / RFU KRT8 (11758183_x_at) / Fold change /veh KRT8 (11758183_x_at) / RFU CNN1 (11734310_a_at) / Fold change /veh CNN1 (11734310_a_at) / RFU VPS37D (11726825_at) / Fold change /veh VPS37D (11726825_at) / RFU C10orf10 (11716522_x_at) / Fold change /veh C10orf10 (11716522_x_at) / RFU KIR2DL2 /// KIR2DL4 /// KIR2DL5A /// KIR2DL5B /// KIR2DS1 /// KIR2DS2 /// KIR2DS3 /// KIR2DS4 /// KIR3DL3 /// KIR3DL3 /// KIR3DS1 (11738374_at) / Fold change /veh KIR2DL2 /// KIR2DL4 /// KIR2DL5A /// KIR2DL5B /// KIR2DS1 /// KIR2DS2 /// KIR2DS3 /// KIR2DS4 /// KIR3DL3 /// KIR3DL3 /// KIR3DS1 (11738374_at) / RFU C1QL1 (11718748_at) / Fold change /veh C1QL1 (11718748_at) / RFU TMPRSS4 (11747572_a_at) / Fold change /veh TMPRSS4 (11747572_a_at) / RFU HAMP (11756126_x_at) / Fold change /veh HAMP (11756126_x_at) / RFU RNFT2 (11725882_a_at) / Fold change /veh RNFT2 (11725882_a_at) / RFU NR4A2 (11747474_a_at) / Fold change /veh NR4A2 (11747474_a_at) / RFU ABCC12 (11746883_a_at) / Fold change /veh ABCC12 (11746883_a_at) / RFU TMEM136 (11760407_x_at) / Fold change /veh TMEM136 (11760407_x_at) / RFU CLDN22 /// WWC2 (11732394_at) / Fold change /veh CLDN22 /// WWC2 (11732394_at) / RFU HLA-DPB1 (11760878_x_at) / Fold change /veh HLA-DPB1 (11760878_x_at) / RFU SPINT1 (11716480_a_at) / Fold change /veh SPINT1 (11716480_a_at) / RFU GAP43 (11754022_s_at) / Fold change /veh GAP43 (11754022_s_at) / RFU A4GNT (11735810_at) / Fold change /veh A4GNT (11735810_at) / RFU PRB3 (11715151_x_at) / Fold change /veh PRB3 (11715151_x_at) / RFU TUBB4B (11761932_at) / Fold change /veh TUBB4B (11761932_at) / RFU CAPN14 (11732068_a_at) / Fold change /veh CAPN14 (11732068_a_at) / RFU TMCC2 (11721928_a_at) / Fold change /veh TMCC2 (11721928_a_at) / RFU IRGQ (11745062_a_at) / Fold change /veh IRGQ (11745062_a_at) / RFU FAM174B (11720279_a_at) / Fold change /veh FAM174B (11720279_a_at) / RFU TMPRSS4 (11748680_a_at) / Fold change /veh TMPRSS4 (11748680_a_at) / RFU FAM212B (11763350_a_at) / Fold change /veh FAM212B (11763350_a_at) / RFU PLEKHG5 (11743358_a_at) / Fold change /veh PLEKHG5 (11743358_a_at) / RFU ZSCAN30 (11745921_a_at) / Fold change /veh ZSCAN30 (11745921_a_at) / RFU CMKLR1 (11741424_a_at) / Fold change /veh CMKLR1 (11741424_a_at) / RFU LOC101060620 /// MAPK8IP1 (11723275_at) / Fold change /veh LOC101060620 /// MAPK8IP1 (11723275_at) / RFU SPTSSB (11747773_x_at) / Fold change /veh SPTSSB (11747773_x_at) / RFU PRSS12 (11739890_at) / Fold change /veh PRSS12 (11739890_at) / RFU BIN1 (11741810_x_at) / Fold change /veh BIN1 (11741810_x_at) / RFU WNT11 (11732464_a_at) / Fold change /veh WNT11 (11732464_a_at) / RFU C10orf10 (11716521_a_at) / Fold change /veh C10orf10 (11716521_a_at) / RFU C5orf56 (11738089_at) / Fold change /veh C5orf56 (11738089_at) / RFU CYB561 (11721691_x_at) / Fold change /veh CYB561 (11721691_x_at) / RFU ANKRD19P (11752326_a_at) / Fold change /veh ANKRD19P (11752326_a_at) / RFU OR2T12 /// OR2T33 /// OR2T8 (11738714_s_at) / Fold change /veh OR2T12 /// OR2T33 /// OR2T8 (11738714_s_at) / RFU VCAN (11748164_a_at) / Fold change /veh VCAN (11748164_a_at) / RFU JSRP1 (11732532_at) / Fold change /veh JSRP1 (11732532_at) / RFU KRTAP10-11 (11738290_x_at) / Fold change /veh KRTAP10-11 (11738290_x_at) / RFU MYO3A (11730013_a_at) / Fold change /veh MYO3A (11730013_a_at) / RFU EBF3 (11725865_a_at) / Fold change /veh EBF3 (11725865_a_at) / RFU CAMK2N1 (11719241_x_at) / Fold change /veh CAMK2N1 (11719241_x_at) / RFU C5orf56 (11738088_a_at) / Fold change /veh C5orf56 (11738088_a_at) / RFU OLFML3 (11715873_a_at) / Fold change /veh OLFML3 (11715873_a_at) / RFU LOC100653217 /// NTM (11731650_a_at) / Fold change /veh LOC100653217 /// NTM (11731650_a_at) / RFU MAPK11 (11762145_a_at) / Fold change /veh MAPK11 (11762145_a_at) / RFU FIZ1 (11724087_x_at) / Fold change /veh FIZ1 (11724087_x_at) / RFU OASL (11726364_x_at) / Fold change /veh OASL (11726364_x_at) / RFU SOX15 (11748057_x_at) / Fold change /veh SOX15 (11748057_x_at) / RFU CD79A (11719716_a_at) / Fold change /veh CD79A (11719716_a_at) / RFU HIST1H1D (11736915_at) / Fold change /veh HIST1H1D (11736915_at) / RFU CASKIN2 (11723855_a_at) / Fold change /veh CASKIN2 (11723855_a_at) / RFU LOC730098 (11760151_x_at) / Fold change /veh LOC730098 (11760151_x_at) / RFU OR4N2 (11742367_at) / Fold change /veh OR4N2 (11742367_at) / RFU PRRT2 (11749266_a_at) / Fold change /veh PRRT2 (11749266_a_at) / RFU SNX32 (11753110_a_at) / Fold change /veh SNX32 (11753110_a_at) / RFU CDHR5 (11726645_a_at) / Fold change /veh CDHR5 (11726645_a_at) / RFU RCAN1 (11760418_a_at) / Fold change /veh RCAN1 (11760418_a_at) / RFU FAM167A (11723789_a_at) / Fold change /veh FAM167A (11723789_a_at) / RFU FAM26E (11764081_at) / Fold change /veh FAM26E (11764081_at) / RFU ISYNA1 (11749810_s_at) / Fold change /veh ISYNA1 (11749810_s_at) / RFU ACY1 (11761880_at) / Fold change /veh ACY1 (11761880_at) / RFU 11764098_at / Fold change /veh 11764098_at / RFU SAMD14 (11745864_x_at) / Fold change /veh SAMD14 (11745864_x_at) / RFU NPB (11741838_a_at) / Fold change /veh NPB (11741838_a_at) / RFU TMPRSS6 (11731388_a_at) / Fold change /veh TMPRSS6 (11731388_a_at) / RFU KRTAP10-2 (11738614_at) / Fold change /veh KRTAP10-2 (11738614_at) / RFU ARHGAP8 /// PRR5-ARHGAP8 (11727945_x_at) / Fold change /veh ARHGAP8 /// PRR5-ARHGAP8 (11727945_x_at) / RFU KRTAP5-7 /// NADSYN1 (11734609_at) / Fold change /veh KRTAP5-7 /// NADSYN1 (11734609_at) / RFU RASL12 (11751679_a_at) / Fold change /veh RASL12 (11751679_a_at) / RFU CDKN2B (11736163_a_at) / Fold change /veh CDKN2B (11736163_a_at) / RFU PRF1 (11729649_at) / Fold change /veh PRF1 (11729649_at) / RFU, ZNF638 /// ZNF638-IT1 / Fold change vs veh, ZNF638 /// ZNF638-IT1 / RFU, PANK3 / Fold change vs veh, PANK3 / RFU, SH3YL1 / Fold change vs veh, SH3YL1 / RFU, ZEB2 / Fold change vs veh, ZEB2 / RFU, NRIP1 / Fold change vs veh, NRIP1 / RFU, PTTG1IP / Fold change vs veh, PTTG1IP / RFU, CAPN2 / Fold change vs veh, CAPN2 / RFU, MED14 / Fold change vs veh, MED14 / RFU, SNORA58 / Fold change vs veh, SNORA58 / RFU, C1orf63 / Fold change vs veh, C1orf63 / RFU, LRRFIP1 / Fold change vs veh, LRRFIP1 / RFU, NDUFAF7 / Fold change vs veh, NDUFAF7 / RFU, SLC12A2 / Fold change vs veh, SLC12A2 / RFU, IBTK / Fold change vs veh, IBTK / RFU, ESF1 / Fold change vs veh, ESF1 / Fold change vs veh, TMEM50B / RFU, TAOK1 / Fold change vs veh, TAOK1 / RFU, ACBD3 / Fold change vs veh, ACBD3 / RFU, TMA16 / Fold change vs veh, TMA16 / RFU, RWDD3 / Fold change vs veh, RWDD3 / RFU, BCAT1 / Fold change vs veh, BCAT1 / RFU, EDEM3 / Fold change vs veh, EDEM3 / RFU, TMEM33 / Fold change vs veh, TMEM33 / RFU, WDR75 / Fold change vs veh, WDR75 / RFU, AHCTF1 / Fold change vs veh, AHCTF1 / RFU, TFRC / Fold change vs veh, TFRC / RFU, ZDHHC17 / Fold change vs veh, ZDHHC17 / RFU, NOM1 / Fold change vs veh, NOM1 / RFU, ARL8B / Fold change vs veh, ARL8B / RFU, ZBTB11 / Fold change vs veh, ZBTB11 / RFU, TAMM41 / Fold change vs veh, TAMM41 / RFU, KIAA1704 /// LOC100996395 / Fold change vs veh, KIAA1704 /// LOC100996395 / RFU, ING1 / Fold change vs veh, ING1 / RFU, TRMT61B / Fold change vs veh, TRMT61B / RFU, FUBP3 / Fold change vs veh, FUBP3 / RFU, TP53 / Fold change vs veh, TP53 / RFU, TNKS2 / Fold change vs veh, TNKS2 / RFU, ZFP14 / Fold change vs veh, ZFP14 / RFU, ACTR2 / Fold change vs veh, ACTR2 / RFU, PPP3R1 / Fold change vs veh, PPP3R1 / RFU, PIK3R1 / Fold change vs veh, PIK3R1 / RFU, HNRNPA1 / Fold change vs veh, HNRNPA1 / RFU, RNF170 / Fold change vs veh, RNF170 / RFU, ZNF28 / Fold change vs veh, ZNF28 / RFU, RNGTT / Fold change vs veh, RNGTT / RFU, OGT / Fold change vs veh, OGT / RFU, BRD1 / Fold change vs veh, BRD1 / RFU, MARS / Fold change vs veh, MARS / RFU, ZNF655 / Fold change vs veh, ZNF655 / RFU, FAHD1 / Fold change vs veh, FAHD1 / RFU, BDP1 / Fold change vs veh, BDP1 / RFU, LRRCC1 / Fold change vs veh, LRRCC1 / RFU, ARID1A / Fold change vs veh, ARID1A / RFU, ZNF146 / Fold change vs veh, ZNF146 / RFU, ZNF330 / Fold change vs veh, ZNF330 / RFU, GPN3 / Fold change vs veh, GPN3 / RFU, C9orf123 / Fold change vs veh, C9orf123 / RFU, N4BP2L2 / Fold change vs veh, N4BP2L2 / RFU, ARFIP1 / Fold change vs veh, ARFIP1 / RFU, FAM179B / Fold change vs veh, FAM179B / RFU, BCL10 / Fold change vs veh, BCL10 / RFU, UHRF1BP1L / Fold change vs veh, UHRF1BP1L / RFU, BET1 / Fold change vs veh, BET1 / RFU, CNOT2 / Fold change vs veh, CNOT2 / RFU, ZNF268 / Fold change vs veh, ZNF268 / Fold change vs veh, ZNF507 / RFU, DGCR2 / Fold change vs veh, DGCR2 / RFU, WDSUB1 / Fold change vs veh, WDSUB1 / Fold change vs veh, HSP90B1 /// MIR3652 / RFU, ADSS / Fold change vs veh, ADSS / RFU, GK / Fold change vs veh, GK / RFU, ZNF148 / Fold change vs veh, ZNF148 / RFU, TAF9 / Fold change vs veh, TAF9 / RFU, SLC1A5 / Fold change vs veh, SLC1A5 / RFU, SLMO2 / Fold change vs veh, SLMO2 / RFU, ABCC4 / Fold change vs veh, ABCC4 / RFU, LOC101060439 /// RAP1B / Fold change vs veh, LOC101060439 /// RAP1B / RFU, RFX7 / Fold change vs veh, RFX7 / RFU, GTPBP10 / Fold change vs veh, GTPBP10 / RFU, CNEP1R1 / Fold change vs veh, CNEP1R1 / RFU, BIVM-ERCC5 /// ERCC5 / Fold change vs veh, BIVM-ERCC5 /// ERCC5 / RFU, ILF3 / Fold change vs veh, ILF3 / RFU 11762660_at / Fold change /veh 11762660_at / RFU VCAN (11757783_s_at) / Fold change /veh VCAN (11757783_s_at) / RFU DDX43 (11728927_at) / Fold change /veh DDX43 (11728927_at) / RFU KRT8 (11758188_x_at) / Fold change /veh KRT8 (11758188_x_at) / RFU NKD1 (11759106_at) / Fold change /veh NKD1 (11759106_at) / RFU SRD5A1 (11742802_a_at) / Fold change /veh SRD5A1 (11742802_a_at) / RFU TPSAB1 /// TPSB2 (11721975_s_at) / Fold change /veh TPSAB1 /// TPSB2 (11721975_s_at) / RFU GSTM3 (11746129_a_at) / Fold change /veh GSTM3 (11746129_a_at) / RFU IL23R (11737362_x_at) / Fold change /veh IL23R (11737362_x_at) / RFU TMEM51 (11727254_a_at) / Fold change /veh TMEM51 (11727254_a_at) / RFU PIWIL2 (11732686_x_at) / Fold change /veh PIWIL2 (11732686_x_at) / RFU ORM1 (11744905_x_at) / Fold change /veh ORM1 (11744905_x_at) / RFU CCDC152 (11743942_at) / Fold change /veh CCDC152 (11743942_at) / RFU ECM1 (11717891_a_at) / Fold change /veh ECM1 (11717891_a_at) / RFU IL23R (11748794_a_at) / Fold change /veh IL23R (11748794_a_at) / RFU TNFAIP8L3 (11732012_x_at) / Fold change /veh TNFAIP8L3 (11732012_x_at) / RFU MBOAT4 (11741988_at) / Fold change /veh MBOAT4 (11741988_at) / RFU 11764193_at / Fold change /veh 11764193_at / RFU TMEM53 (11763286_at) / Fold change /veh TMEM53 (11763286_at) / RFU MAGEB2 (11727129_at) / Fold change /veh MAGEB2 (11727129_at) / RFU TMEM200A (11744735_a_at) / Fold change /veh TMEM200A (11744735_a_at) / RFU CCDC152 (11751479_a_at) / Fold change /veh CCDC152 (11751479_a_at) / RFU FAM211A (11726209_a_at) / Fold change /veh FAM211A (11726209_a_at) / RFU RGS16 (11746705_a_at) / Fold change /veh RGS16 (11746705_a_at) / RFU VCAN (11755009_s_at) / Fold change /veh VCAN (11755009_s_at) / RFU RHOB (11743442_s_at) / Fold change /veh RHOB (11743442_s_at) / RFU RGS16 (11720943_a_at) / Fold change /veh RGS16 (11720943_a_at) / RFU RGS16 (11720944_at) / Fold change /veh RGS16 (11720944_at) / RFU, VPS4B / Fold change vs veh, VPS4B / RFU, CREB1 / Fold change vs veh, CREB1 / RFU, DNAJC13 / Fold change vs veh, DNAJC13 / RFU, GNAQ / Fold change vs veh, GNAQ / RFU, CDK5R1 / Fold change vs veh, CDK5R1 / RFU, ZRANB3 / Fold change vs veh, ZRANB3 / RFU, CUL4A / Fold change vs veh, CUL4A / RFU, CCNY / Fold change vs veh, CCNY / RFU, UFL1 / Fold change vs veh, UFL1 / RFU, COG3 / Fold change vs veh, COG3 / RFU, DIAPH2 / Fold change vs veh, DIAPH2 / RFU, SKA2 / Fold change vs veh, SKA2 / RFU, AFF3 / Fold change vs veh, AFF3 / RFU, LMF1 / Fold change vs veh, LMF1 / RFU, IPO11 / Fold change vs veh, IPO11 / RFU, DFFB / Fold change vs veh, DFFB / RFU, FOXP1 / Fold change vs veh, FOXP1 / RFU, CARD8 / Fold change vs veh, CARD8 / RFU, STRN3 / Fold change vs veh, STRN3 / RFU, ADK / Fold change vs veh, ADK / RFU, RASSF2 / Fold change vs veh, RASSF2 / RFU, WIPF1 / Fold change vs veh, WIPF1 / RFU, LARP1B / Fold change vs veh, LARP1B / RFU, RASA1 / Fold change vs veh, RASA1 / RFU, RB1 / Fold change vs veh, RB1 / RFU, PPFIA1 / Fold change vs veh, PPFIA1 / RFU, MAT2A / Fold change vs veh, MAT2A / RFU, CCT5 / Fold change vs veh, CCT5 / RFU, WDR92 / Fold change vs veh, WDR92 / RFU, CUX1 / Fold change vs veh, CUX1 / RFU, TTC7A / Fold change vs veh, TTC7A / RFU, TMEM135 / Fold change vs veh, TMEM135 / RFU, DEPTOR / Fold change vs veh, DEPTOR / RFU, CPM / Fold change vs veh, CPM / RFU, DNAJB6 / Fold change vs veh, DNAJB6 / RFU, CACNA2D3 / Fold change vs veh, CACNA2D3 / RFU, DTX4 / Fold change vs veh, DTX4 / RFU, TFCP2 / Fold change vs veh, TFCP2 / RFU, GMCL1 /// GMCL1P1 / Fold change vs veh, GMCL1 /// GMCL1P1 / RFU, AEBP2 / Fold change vs veh, AEBP2 / RFU, SNHG1 /// SNORD22 /// SNORD25 /// SNORD26 /// SNORD27 /// SNORD28 /// SNORD29 /// SNORD31 / Fold change vs veh, SNHG1 /// SNORD22 /// SNORD25 /// SNORD26 /// SNORD27 /// SNORD28 /// SNORD29 /// SNORD31 / Fold change (Aza/veh), C12orf56 (ProbeSet 11735607_a_at) / Fold change (ACY-1035/veh), C12orf56 (ProbeSet 11735607_a_at) / Fold change (Aza/veh), FGFR1OP (ProbeSet 11751329_s_at) / Fold change (ACY-1035/veh), FGFR1OP (ProbeSet 11751329_s_at) / Fold change (Aza/veh), VPS36 (ProbeSet 11739960_a_at) / Fold change (ACY-1035/veh), VPS36 (ProbeSet 11739960_a_at) / RFU SYPL1 (11715823_x_at) / Fold change /veh SYPL1 (11715823_x_at) / RFU IGFBP7 (11715501_s_at) / Fold change /veh IGFBP7 (11715501_s_at) / RFU REEP3 (11722064_at) / Fold change /veh REEP3 (11722064_at) / RFU IGLL1 (11728026_x_at) / Fold change /veh IGLL1 (11728026_x_at): dose or concentration left out as unconfirmed. To be noted: MV-4-11 cells, 48 hours.

As to `Nc1ncn([C@@H]2O[C@H](CO)[C@@H](O)[C@H]2O)c(=O)n1` [azacitidine], the “Fold change /veh RGS16 (11720944_at)” value worked out at 1.54.
